The values that follow come from US20230159931A1, “TARGETING THE PALMOTYLATION/DEPALMOTYLATION CYCLE TO TREAT INFLAMMATORY DISEASES” (CORNELL UNIVERSITY, priority 2020, published 2023).

The test system of one assay is SMAD2 S-palmitoylation. As to the kind of experiment: SMAD2 S-palmitoylation in HEK293T cells treated with APT inhibitors (Alk14, in-gel fluorescence). The class given is cell-based, human. The following applies: 10 μM APT inhibitors for 24 hours; HEK293T cells with HA-DHHC7 and Flag-SMAD2. From the text: FIGS. 7A-7G. APT2 is the depalmitylase of SMAD2 and C-terminal phosphorylation of SMAD2 is S-palmitoylation independent. (A) C-terminal phosphorylation (Ser465/Ser467) levels of Flag-SMAD2 (p-SMAD2(C2)) in HEK293T cells expressing HA-tagged mouse DHHC1-23. SMAD2 was pulled down with Flag beads and subjected to western blot analyses. (B) HEK293T cells were transfected with HA-tagged DHHC7 and Flag-SMAD2 WT and C41/81S mutant plasmid and treated with Alk14. The S-palmitoylation level of immunoprecipitated SMAD2 was visualized by in-gel fluorescence and the p-SMAD2(C2) level was detected by western blot analyses. […] The S-palmitoylation level of immunoprecipitated SMAD2 was visualized by in-gel fluorescence. […] The cells were labeled with Alk14 and the S-palmitoylation of SMAD2 was determined by in-gel fluorescence. […] The cells were labeled with Alk14 and the S-palmitoylation of SMAD2 was determined by in-gel fluorescence and the p-SMAD2(C2) level was detected by western blot analyses. […]
Cells were treated with 50 μM palmitic acid analogue Alkyne 14 (Alk14) for 5 h and the collected and lysed in 1% NP-40 lysis buffer (25 mM Tris-HCl pH 8.0, 150 mM NaCl, 10% glycerol, 1% Nonidet P-40) with protease inhibitor cocktail. […] The protein concentration was determined by Bradford assay (23200, Thermo Fisher). […]

The test system of assay [1] is Bone marrow-derived macrophages (BMDM). As to the kind of experiment: Cytokine mRNA expression during LPS priming of BMDM (qRT-PCR). The class given is cell-based. The following applies: 100 ng/mL LPS, 2-BP 10 μM or 25 μM, 6 hours. As for the experimental part: FIGS. 12A-12D. 2-BP, a pan-DHHC inhibitor, decreases cytokines mRNA expression during the LPS priming step of inflammasome activation. Bone marrow-derived macrophages (BMDM) were treated with 100 ng/mL lipopolysaccharide (LPS), which can prime BMDM for inflammasome activation. A small molecule that inhibits all the DHHC family of palmitoyltransferases (DHHCs), 2-bromopalmitate (2-BP), was added at 10 μM or 25 μM together with LPS. The cells were cultured with LPS and 2-BP for 6 hours and then the mRNA levels of several pro-inflammatory cytokines: (A) IL-1 beta, (B) IL-6, (C) IL-12 beta, and (D) IL-18, were measured by quantitative reverse transcription PCR (qRT-PCR).
Bone marrow-derived macrophages (BMDM) were treated with 100 ng/mL lipopolysaccharide (LPS), which can prime BMDM for inflammasome activation. A small molecule that inhibits all the DHHC family of palmitoyltransferases (DHHCs), 2-bromopalmitate (2-BP), was added at 10 μM or 25 μM together with LPS. The cells were cultured with LPS and 2-BP for 6 hours and then the mRNA levels of several pro-inflammatory cytokines: IL-1 beta (FIG. 12A), IL-6 (FIG. 12B), IL-12 beta (FIG. 12C), and IL-18 (FIG. 12D), were measured by quantitative reverse transcription PCR (qRT-PCR).
On the technique in general: Quantitative PCR measures a nucleic acid by following its amplification.

The subject of another assay is NLRP3 inflammasome. Nature of the assay: NLRP3-mediated inflammasome activation in peritoneal macrophage (secreted IL-1 beta). It counts as cell-based. The following applies: peritoneal macrophage primed with LPS 200 ng/mL 4h; 2-BP 25 μM with ATP 5 mM or Nigericin 10 μM, 1 h. Here is the method:
FIG. 13. 2-BP affects NLRP3-mediated inflammasome activation. Peritoneal macrophage was first primed with LPS (200 ng/mL) in DMEM medium (without serum) for 4h, and then 2-BP (25 μM) and ATP (5 mM) or Nigericin (10 μM) were added to the cell culture and incubated for 1 h. ATP and nigericin are two reagents that are commonly used to activate the NLRP3 inflammasome. The activation of NLRP3 inflammasome was then monitored by measuring the level of IL-1 beta secreted to the medium.
Peritoneal macrophage was first primed with LPS (200 ng/mL) in DMEM medium (without serum) for 4h, and then 2-BP (25 μM) and ATP (5 mM) or Nigericin (10 μM) were added to the cell culture and incubated for 1 h. ATP and nigericin are two reagents that are commonly used to activate the NLRP3 inflammasome. The activation of NLRP3 inflammasome was then monitored by measuring the level of IL-1 beta secreted to the medium (FIG. 13). The data support that inhibiting DHHCs with 2-BP can decrease NLRP3 inflammasome activation.

Consider `CCCCCCCCCC[C@@H]1C(=O)O[C@H]1CCc1ccc(OC)c(OC)c1` [palmostatin B], for which the “SMAD2 S-palmitoylation signal” value with SMAD2 S-palmitoylation is reported as “significantly enhanced”.

As for `CCCCCCCCCCCCCCC(Br)C(=O)O` (stereo not drawn) [2-BP, 2-bromopalmitic acid], in assay [1], the “IL-1 beta mRNA level” value is on record as “decrease the mRNA levels of all these cytokines in a concentration dependent manner”, the “IL-6 mRNA level” value is reported as “decrease the mRNA levels of all these cytokines in a concentration dependent manner”, the “IL-12 beta mRNA level” value is recorded as “decrease the mRNA levels of all these cytokines in a concentration dependent manner” and the “IL-18 mRNA level” value is “decrease the mRNA levels of all these cytokines in a concentration dependent manner”. In addition, in the assay with NLRP3 inflammasome, the “NLRP3 inflammasome activation (level of IL-1 beta secreted to the medium)” value is listed as “decrease”.
